Test results from patent US20250270507A1, “METHODS FOR PRODUCING CARTILAGE AND BONES” (Murdoch Children's Research Institute, priority 2021, published 2025).

Key:
Assay type in all cases: cell-based, human
[1] = system: iPSC-derived sclerotome pellets (MCRIi018-B); experiment: Sclerotome to chondrocyte differentiation in pellet culture (FGF2 v BMP4); conditions: for collagen II extracellular matrix (immunostaining) / collagen X extracellular staining: day 48; for collagen X extracellular staining: static pellets
Description: Sclerotome to chondrocyte differentiation was in APEL2 medium containing 5% Protein Free Hybridoma Medium (PFHM II; Thermo Fisher) and 20 ng/ml FGF2. In some experiments BMP4 (R & D Systems) was included at 20 ng/ml. Pellets were routinely transferred to 6 cm non-adherent dishes (Greiner) at the end of either day 6 or day 20; 15-20 pellets per dish in 5 ml of medium with orbital rotation at 60 rpm. The medium was changed every 2-3 days. From day 20 (after 2 weeks of FGF2 treatment), differentiation/maturation continued in APEL2/5% PFHM with medium replaced every 2-3 days for the duration of the chondrogenic differentiation experiments as indicated. In some experiments pellets were treated with FGF2 for 4 weeks post-sclerotome.
(§1) Cultured and in vivo grafted pellet organoids were fixed overnight at 4° C. in Confix (Australian Biostain) neutral-buffered formalin, then […] washed in 70% ethanol, and paraffin-embedded. After fixing, some in vivo grafted pellets were washed in water for 10 minutes then decalcified in 14% EDTA, pH 7.4 at 4° C. for 5 days before embedding. Serial 5 μm sections cut from the pellet centers were mounted on Superfrost Plus slides (Menzel-Gläser) and heated at 55° C. overnight. Sections were treated with xylene to remove the paraffin wax and an ethanol series comprising 100%, 90%, 70%, 50% ethanol then water to rehydrate the sections. Sections were stained with toluidine blue to detect a cartilage proteoglycan matrix or safranin O/fast green for cartilage and bone following standard protocols. Osteogenic pellet sections were also stained with von Kossa to detect mineralization. Images were captured using a Leica DM 2000 LED microscope with Leica Application Suite (LAS) software version 4.9.0 or Zeiss Axio Imager Z2 with Zen 3.1 Blue Edition software.
(§2) Formalin fixed and paraffin-embedded sections were immunostained for collagen II (MAB8887; Sigma-Aldrich; 1:150 dilution), collagen I (LF68; Kerafast ENH018-FP; 1:100), collagen X (Cameron et al., 2015) (1:100), PRG4 (clone 9G3; Merck) (1:100) and Ku80 (Cell Signaling) (1:300). For collagen II staining, antigen retrieval used 2 mg/ml porcine pepsin (Sigma) freshly prepared in 1 M Tris/HCl, pH 2.0 for 30 minutes at 37° C., followed by digestion for 30 minutes at 37° C. with 0.2% hyaluronidase (Sigma-Aldrich) in PBS. Collagen X antigen retrieval involved heating to 60° C. in 10 mM Tris/1 mM EDTA/0.05% Tween-20, pH 9.0 (Tris/EDTA) for 30 min, cooling to room temperature for 30 minutes, followed by hyaluronidase digestion and collagen I and Ku80 staining followed antigen retrieval at 60° C. in Tris/EDTA as above. Sections to be stained with Ku80 were then permeabilized with 0.05% Triton X-100. Sections were blocked with 3% BSA in PBS for 1 hour at room temperature, then incubated with primary antibodies in 1% BSA in PBS for 16 hours at 4° C. Appropriate species specific Alexa Fluor 488 and 594 secondary antibodies (ThermoFisher) were diluted 1:200 in 1% BSA in PBS with 2.5 μg/ml DAPI, and sections incubated for 1 hour at room temperature. Slides were washed with PBS and coverslips mounted using Shandon Immumount (ThermoFisher). Images were captured as described above. For collagen X intracellular colocalization studies sections were treated with 0.2% hyaluronidase at 37° C. for 30 minutes then permeabilized with 0.05% Triton X-100. The collagen X antibody was used at 1:100, 58K (PA1-9000; ThermoFisher) at 1:50, GRP94 (PA5-18534; ThermoFisher) 1:200 and LAMP2 (ab25631; Abcam) 1:50. Images were captured on a Zeiss LSM900 Airyscan 2 confocal microscope with Zen 3.1 Blue Edition software.
RNA was extracted from monolayer cultures using TRIzol […] following the manufacturer's instructions. Typically 100-200 ng total RNA was used for cDNA synthesis in a total volume of 20 μl using the QuantiTect® Reverse Transcription kit (Qiagen) according to the manufacturer's instructions. […]

[2] = system: MCRIi018-B hypertrophic organoids; experiment: Hypertrophic chondrocyte to osteoblast transdifferentiation in vitro
Description: Hypertrophic chondrocytes can transdifferentiate into osteoblasts and osteocytes in vivo (Yang et al., 2014; Zhou et al., 2014). To recapitulate this later stage of endochondral bone formation in vitro, hypertrophic chondrocyte pellets in orbital culture were rinsed in PBS then cultured in DMEM, high glucose, GlutaMAX Supplement, pyruvate (ThermoFisher), 20% FBS (ThermoFisher), 10 mM β-glycerophosphate, 50 μg/ml ascorbic acid 2-phosphate, 50 μg/ml sodium ascorbate, 100 nM dexamethasone (osteogenic differentiation media) for up to three weeks. […] Media was replaced every 2-3 days. […]

MCRIi001-A-2 organoids = experiment: Osteogenic differentiation conditions in a second iPSC line; conditions: osteogenic conditions with a CHIR99021 pulse v osteogenic medium alone
Description: Hypertrophic chondrocytes can transdifferentiate into osteoblasts and osteocytes in vivo (Yang et al., 2014; Zhou et al., 2014). To recapitulate this later stage of endochondral bone formation in vitro, hypertrophic chondrocyte pellets in orbital culture were rinsed in PBS then cultured in DMEM, high glucose, GlutaMAX Supplement, pyruvate (ThermoFisher), 20% FBS (ThermoFisher), 10 mM β-glycerophosphate, 50 μg/ml ascorbic acid 2-phosphate, 50 μg/ml sodium ascorbate, 100 nM dexamethasone (osteogenic differentiation media) for up to three weeks. […] Media was replaced every 2-3 days.
as §1, with “Osteogenic pellet sections were also stained with von Kossa to detect mineralization. Images were captured using a Leica DM 2000 LED microscope with Leica Application Suite (LAS) software version 4.9.0 or Zeiss Axio Imager Z2 with Zen 3.1 Blue Edition software.” left out

[3] = system: iPSC-derived chondroprogenitors (MCRIi019-A); experiment: TGFβ3 induction of an articular chondrocyte phenotype; conditions: day 48
Description: In some experiments, differentiated chondrocytes were treated with 10 ng/ml TGFβ3 (R&D Systems) for up to 34 days to generate articular cartilage. From day 6, differentiation/maturation continued in APEL2/5% PFHM (with FGF2) for 7 days. From day 13, 10 ng/ml TGFβ3 was added (i.e. FGF2 and TGFβ3) with medium replaced every 2-3 days. At day 20, the pellets were transferred to rotary culture and cultured with 10 ng/ml TGFβ3 (R&D Systems) (and without FGF2) for a further 4 weeks.
as §1, §2
For RNAseq, organoids (2-3 pooled) were snap frozen in liquid nitrogen, pulverized using a liquid nitrogen-cooled tissue grinder and RNA extracted with TRIzol, followed by purification using Direct-zol RNA Microprep kit spin columns (Zymo Research) according to the manufacturer's instructions. RNA samples were quality controlled and sequenced at the Translational Genomics Unit, Murdoch Children's Research Institute. Libraries were constructed using Illumina Stranded mRNA Prep kits and sequenced using a NextSeq 500 to obtain ˜20×10^6 75 bp paired-end reads per sample or a NovaSeq 6000 for 150 bp paired-end reads. […]

[4] = 20 ng/ml for 14 days post-sclerotome, qRT-PCR
[5] = 20 ng/ml for 14 days post-sclerotome, static culture, day 34
[6] = osteogenic conditions with CHIR, RNAseq
[7] = osteogenic conditions with a CHIR pulse, RNAseq

## FGF2: FGF pathway activator growth factor (PeproTech) used at 20 ng/ml post-sclerotome
[1]; [4]
  COL2A1 and ACAN gene expression: consistently higher than in BMP4 cultures
[1]; [5]
  toluidine blue staining of pellets: strong toluidine blue staining throughout
[1]
  collagen II extracellular matrix (immunostaining): extensive and uniform collagen II extracellular matrix
  collagen X extracellular staining: strong
[1]; rotary culture from day 6
  toluidine blue staining of pellets: stained throughout with toluidine blue

## Cc1cnc(-c2cnc(NCCNc3ccc(C#N)cn3)nc2-c2ccc(Cl)cc2Cl)[nH]1 [CHIR99021, 6-[[2-[[4-(2,4-Dichlorophenyl)-5-(5-methyl-1H-imidazol-2-yl)-2-pyrimidinyl]amino]ethyl]amino]-3-pyridinecarbonitrile]
[2]; RNAseq
  COL1A1 mRNA expression v osteogenic medium alone: much higher
  bone markers COL3A1, COL5A1 and OMD mRNA v osteogenic medium alone: more highly expressed
  other cartilage markers (SOX9, COMP, IHH, MATN3, CEBPB, COL11A1, COL11A2, COL9A1, COL9A2, COL9A3) mRNA v osteogenic medium alone: downregulated more
[2]; [6]
  COL1A1 upregulation v hypertrophic chondrocytes: 324 fold
  COL1A2 upregulation v hypertrophic chondrocytes: 210 fold
  DMP1 upregulation v hypertrophic chondrocytes: 935 fold
  IBSP upregulation v hypertrophic chondrocytes: 7 fold
  IFITM5 upregulation v hypertrophic chondrocytes: 105 fold
[2]; [7]
  CCDC3 upregulation v hypertrophic chondrocytes: 121 fold
  FAP upregulation v hypertrophic chondrocytes: 64 fold
  POSTN upregulation v hypertrophic chondrocytes: 54 fold
  SFRP4 upregulation v hypertrophic chondrocytes: 4 fold
  TNC upregulation v hypertrophic chondrocytes: 72 fold
[2]; osteogenic medium with 7-day pulse then 2 weeks osteogenic medium alone
  toluidine blue staining: marked reduction in toluidine blue staining
[2]; three weeks
  μCT calcium phosphate mineral: little μCT attenuation
[2]; three weeks, compared between the two osteogenic conditions
  von Kossa staining (matrix mineralization): positive von Kossa staining
MCRIi001-A-2 organoids
  aggrecan degradation (toluidine blue): more extensive

## TGFβ3: TGF-beta agonist growth factor (R&D Systems) used at 10 ng/ml
[3]; 10 ng/ml from day 13
  PRG4 immunostaining: High uniform PRG4 immunostaining
  chondrocyte morphology: smaller chondrocytes
  collagen II expression (immunostaining): also expressing collagen II
  collagen X (immunostaining): no extracellular collagen X
[3]; RNAseq
  ACAN and HAPLN mRNA: down-regulation
  COL10A1, IBSP, SPP1 and MATN3 mRNA: among the most downregulated
  COMP mRNA v untreated chondronoids: not differentially expressed
  ERG transcription factor mRNA: highly expressed and upregulated
  MEOX1 and MEOX2 mRNA: highly upregulated
  PRG4, ASPN, CILP and CILP2 mRNA v untreated chondronoids: strongly upregulated
  downregulation of COL2A1, COL9A1, COL9A2, COL9A3, COL11A1 mRNA v untreated chondronoids: ≤ 2 fold
  elastic fiber components ELN, LTBP2, TGFBI and MFAP5 mRNA: among the 20 most highly upregulated genes
  hypertrophy transcription factors MEF2C, RUNX2, SP7 and DLX5 mRNA: Among the most strongly downregulated

B1: BMP4: growth factor (R & D Systems) included at 20 ng/ml in some experiments (protein, UniProt P12644 293-408, looked up)
Bone morphogenetic protein 4: SPKHHSQRARKKNKNCRRHSLYVDFSDVGWNDWIVAPPGYQAFYCHGDCPFPLADHLNSTNHAIVQTLVNSVNSSIPKACCVPTELSAISMLYLDEYDKVVLKNYQEMVVEGCGCR
[1]; [4]
  COL10A1 gene expression: expressed earlier
[1]; [5]
  toluidine blue staining of pellets: only isolated areas were toluidine blue positive
[1]; 20 ng/ml for two weeks post-sclerotome, first experiments, data not shown
  expression of key cartilage genes: key cartilage genes were not highly expressed
[1]
  collagen II extracellular matrix (immunostaining): only small foci that were positive for collagen II
  collagen X extracellular staining: only seen in small, localized regions
[1]; transfer to rotary culture at end of day 6
  maintenance of pellets in rotary culture: fragile and could not be maintained in rotary culture
